Source: patent US12285392B2, “Method for modulating metabolism” (Brightseed, Inc., priority 2018, dated 2025)

What was measured:
insulin mRNA = test: Insulin mRNA levels by quantitative PCR; format: cell-based; conditions: FIG. 2
Description: Expression of Insulin and HNF4α. RNA was purified using a RNEASY® chromatographic separation and isolation kits (Qiagen), and converted to cDNA using the gScript™ cDNA SuperMix (Quanta Biosciences). Q-PCR was conducted with cDNA corresponding to 2 μg of RNA using an Opticon Real-Time System (MJ Research) and QPCR SuperMix (BioPioneer). See All mRNA values were normalized to 18S rRNA values and are expressed as fold changes over vehicle-treated control.

[1] = Hepatic microsome stability assay, rat; format: in vitro ADME; conditions: rat microsomes
Description: Hepatic Microsome Assay. Hepatic microsomes stability assays were performed in accordance with known methods (Peddibhotla, et al. (2013) ACS Med. Chem. Lett. 4:846-851). Briefly, 3 μL of 25 μM compound solution in acetonitrile were incubated with 123 μL of mouse, human or rat liver microsomes (Xenotech, Kansas City, Kans.). […] The microsomal concentrations used were 1.0 mg/mL. Compounds were incubated in microsomes for 0, 5, 15, 30 and 60 minutes. The reactions were stopped by the addition of ice cold ACN and the reaction mixtures were centrifuged at 10,000 g for 10 minutes before the supernatant was removed for analysis. A 10 μL portion of the resulting extract was injected on a Thermo HPLC system equipped with PAL CTC plate sampler (96-well plate), Dionex Ultimate 3000 binary pump (flow rate at 0.600 mL/min), Dionex Ultimate 3000 thermostatted column compartment (temperature at 40° C.), Thermo Endura Mass Spectrometer (ESI source), using a Thermo Scientific Accucore C18 (2.6 μM, 2.1×50 mm) column. A gradient was run starting at 95% H2O (0.1% formic acid) and 5% ACN (0.1% formic acid) during the first 0.5 min, then under gradient condition of 5-100% ACN (0.1% formic acid) from minute 0.5 to 3.5, finishing at 95% H2O (0.1% formic acid) and 5% ACN (0.1% formic acid) over 0.5 min, with another 1 min at 95:5 to re-equilibrate.

T6PNE cells = test: Lipid clearance in T6PNE cells (steatosis assay); format: cell-based
Description: T6PNE cells were pretreated for 1 day with 0.06 mM, 0.12 mM or 0.25 mM palmitate at which time 15 μM N-trans-caffeoyltyramine or control (DMSO) was added. Cells were harvested on day 3, 6 and 8 and subjected to staining with Nile Red and Oil Red O. Results are expressed as fold change in Nile Red staining: +palmitate/10% FBS medium (no palmitate)
Lipid Clearance in HepG2 and T6PNE Cells (Steatosis Assay). The steatosis assay was carried out as described (Kiselyuk, et al. (2012) Chem. Biol. 19(7):806-818) with the exception of the drug concentration, which was 20 μM for N-trans-caffeoyltyramine with 0.25 mM palmitate in HepG2 cell lines, and 10 μM of either N-trans-caffeoyltyramine, N-trans-caffeoyltyramine, or pcoumaroyltyramine, with 0.25 mM palmitate in T6PNE cell lines. Steatosis was assessed using the Oil Red 0 Method for Fats kits (Poly Scientific; Warrington, PA), per manufacturer's guidelines. Briefly, frozen tissue slides or fixed cells were incubated in neat propylene glycol for 2 minutes and Oil Red 0 solution for 15 hours for slides or 1 hour for fixed cells, differentiated in 85% propylene glycol solution for 1 minute, washed twice with distilled water and stained in Hematoxylin of 10 seconds. Slides were mounted with glycerin jelly mounting medium.

pH stability assessment = format: physicochemical; conditions: pH 2, 7.4, 8.5 and 10, 37° C., 0.5 and 72 hours
Description: pH Stability Assessment. Individual stock solutions were prepared in DMSO at concentrations of 10 mg/mL. Four different buffer solutions were prepared to achieve solutions with a pH of 2, 7.4, 8.5 and 10. For each pH assay, 5 μL of stock solution was added to 245 μL of buffered solution to a 2 mL tube, vortexed and incubated in a 37° C. water bath. At each timepoint, 50 μL aliquots were taken, neutralized and analyzed via HPLC analysis using a DAD detector at 280 nm. The fold change of the peak area at 280 nm was analyzed for the initial and final timepoint, 0.5 and 72 hours, respectively.

O=C(/C=C/c1ccc(O)c(O)c1)NCCc1ccc(O)cc1 [N-trans-caffeoyltyramine]
Insulin gene expression (insulin mRNA): upregulated | % Remaining ([1]; 1 μM): 0.6% | % Remaining ([1]; 10 μM): 33.6% | Fat accumulation (T6PNE cells; 10 μM, 0.25 mM palmitate): inhibition of fat accumulation | Lipid accumulation when palmitate was added prior to compound (T6PNE cells; FIG. 6, 15 μM): reduced lipid accumulation | pH Stability (pH stability assessment): Acid Stable
